From US10751351B2, “Medicament for treatment of diabetic foot infections” (Debiopharm International S.A., priority 2016, dated 2020)
Values after ≈ are worked out from the molar mass of the structure shown. Read-outs that look alike come from different tables or passages of the source. Marks after values point to notes of the source that are not given here. Each block holds one compound with its values, some of them ahead of it.

Key:
MRSA clinical strain [1] = assay: Staphylococcus aureus-induced acute osteomyelitis in a rabbit model (2), dose range; assay type: in vivo
Protocol: (§1) MIC assays were performed by broth microdilution using CLSI guidelines. OM was induced in rabbit through inoculation of the knee with 10^8 CFU/mL of a MRSA clinical strain after bone trepanation. On day 3 post-inoculation, surgical debridement was performed to mimic the clinical procedure. Samples of femoral red bone marrow (BM) and epiphyseal spongy bone were removed and bacterial counts corresponding to day 3 after infection were determined. Treatments were started after 3 days of infection and lasted for 4 days with compound A at the dose level of 12.5, 6.25, 1.6, 0.4 or 0.1 mg/kg BID iv (4 h infusion) or its vehicle BID iv. On day 7 post-inoculation, the bacterial counts were determined in BM and bone samples. The treatment efficacy was assessed by comparing the bacterial counts before (day 3 after infection) and after (day 7 after infection) the antibacterial therapy.

[2] = system: Panton-Valentine leukocidin (PVL)-positive MRSA strain; assay: Staphylococcus aureus-induced acute osteomyelitis in a rat model; assay type: in vivo; conditions: for mean reduction in bacterial burden compared to vehicle controls: after 3 weeks of treatment; for mean reduction in bacterial burden compared to vehicle controls / Bone cultures found negative (rats): Compound A 100 mg/kg po BID, vancomycin 100 mg/kg ip QD, fosfomycin 75 mg/kg ip QD; for Bone cultures found negative (rats): day 28, after 3 weeks of treatment
Protocol: (§2) Minimum inhibitory concentration (MIC) assays were performed by broth microdilution using CLSI guidelines against 20 MRSA strains isolated from bone infections. Experimental osteomyelitis was induced through inoculation of the tibial medullary cavity with 7 log10 colony-forming unit (CFU) of a Panton-Valentine leukocidin (PVL)-positive MRSA strain on day 1. Animals were randomly assigned to the following treatment groups: Compound A 100 mg/kg po BID, vancomycin 100 mg/kg ip QD, fosfomycin 75 mg/kg ip QD and vehicle po BID for 3 weeks starting on day 8 post infection (n=6/group). CFU were enumerated in bone homogenates prior to treatment on day 8 in control animals and at the end of treatment period on day 28. Infected and non-infected bone and plasma samples were collected for quantification of Compound B by LC-MS/MS.

MRSA clinical strain [3] = assay type: in vivo, rabbit; conditions: 4 days of treatment; for bacterial counts in BM and bone, result in words: versus vehicle; for Mean ± SD Δlog10 CFU/g of tissue (day 3-day 7), Bone marrow / Mean ± SD Δlog10 CFU/g of tissue (day 3-day 7), Epiphyseal bone: Compound A 12.5 mg/kg BID iv, vancomycin 100 mg/kg once daily constant iv infusion
Protocol: (§3) MIC assays were performed by broth microdilution using CLSI guidelines. Osteomyelitis (OM) was induced in rabbit through inoculation of the knee with 10^8 CFU of an MRSA clinical strain after bone trepanation. On day 3 post-inoculation, surgical debridement was performed to mimic the clinical procedure. Samples of femoral red bone marrow (BM) and epiphyseal spongy bone were removed and bacterial counts were determined.
On day 7 post-inoculation, the bacterial counts were determined in BM and bone samples. The treatment efficacy was assessed by comparing the bacterial counts before (day 3 after infection) and after (day 7 after infection) the antibacterial therapy. Infected and non-infected BM, bone and plasma samples were collected for quantification of Compound B by LC-MS/MS.

MRSA clinical strain [4] = assay: MIC by broth microdilution against the MRSA isolate (Example 5); assay type: cell-based; conditions: Staphylococcus aureus, Example 5 isolate
Protocol: as §1

human PDE3A = human PDE3A (Homo sapiens, UniProt Q14432); assay: PDE3 inhibition assay, Caliper mobility shift (PDE3A); assay type: biochemical; conditions: iFL-cAMP substrate, read-out: absolute IC50 PDE3A
Sequence of human PDE3A (Q14432 whole entry): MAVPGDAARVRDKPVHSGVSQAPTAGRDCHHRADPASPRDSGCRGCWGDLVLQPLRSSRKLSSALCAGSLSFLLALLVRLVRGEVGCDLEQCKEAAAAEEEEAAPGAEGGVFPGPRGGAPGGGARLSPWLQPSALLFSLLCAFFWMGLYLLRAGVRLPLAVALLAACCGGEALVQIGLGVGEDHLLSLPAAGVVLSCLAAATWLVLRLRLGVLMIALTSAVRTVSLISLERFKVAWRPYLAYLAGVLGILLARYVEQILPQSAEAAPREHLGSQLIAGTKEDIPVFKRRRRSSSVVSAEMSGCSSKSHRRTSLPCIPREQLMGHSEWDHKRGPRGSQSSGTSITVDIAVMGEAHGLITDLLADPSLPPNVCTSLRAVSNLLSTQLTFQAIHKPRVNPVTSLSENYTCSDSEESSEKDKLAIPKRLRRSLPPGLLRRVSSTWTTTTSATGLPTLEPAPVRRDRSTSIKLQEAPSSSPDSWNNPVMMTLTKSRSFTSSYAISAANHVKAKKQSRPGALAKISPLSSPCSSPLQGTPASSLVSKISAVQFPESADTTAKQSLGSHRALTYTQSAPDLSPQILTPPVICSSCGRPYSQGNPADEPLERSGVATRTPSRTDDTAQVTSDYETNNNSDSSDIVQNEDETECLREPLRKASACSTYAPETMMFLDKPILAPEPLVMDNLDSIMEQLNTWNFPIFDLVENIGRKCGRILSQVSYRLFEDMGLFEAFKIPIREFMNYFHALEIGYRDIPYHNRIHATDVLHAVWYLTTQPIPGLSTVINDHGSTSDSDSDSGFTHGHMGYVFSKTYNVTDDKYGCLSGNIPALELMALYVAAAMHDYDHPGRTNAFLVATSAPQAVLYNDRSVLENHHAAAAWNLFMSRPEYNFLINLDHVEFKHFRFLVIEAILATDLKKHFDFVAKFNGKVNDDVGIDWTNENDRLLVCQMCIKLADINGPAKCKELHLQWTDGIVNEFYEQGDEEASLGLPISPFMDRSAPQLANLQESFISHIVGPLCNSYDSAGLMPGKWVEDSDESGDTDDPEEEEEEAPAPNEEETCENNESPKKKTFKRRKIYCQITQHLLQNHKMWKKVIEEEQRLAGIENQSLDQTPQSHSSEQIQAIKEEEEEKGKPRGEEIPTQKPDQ
Protocol: (§4) The inhibitory activity of Compound B was assessed against human PDE3A and PDE3B and was compared to cilostazol (a PDE3 inhibitor) in the enzymatic phosphodiesterase assay using Caliper mobility shift assay (2. Card A1, Caldwell C, Min H et al: High-throughput biochemical kinase selectivity assays: panel development and screening applications. J Biomol Screen. (2009); 14(1):31-42.). This method is based on change in charge and electrophoretic separation of product from fluorescently labeled substrate iFL-cAMP. Assays were performed in a 26 μL volume in a 384 well plate. iFL-cAMP substrate was incubated, off-chip, in reaction buffer (100 mM HEPES (pH 7.5), 5 mM MgCl2 and 0.002% Brij35) in the presence of active enzymes (PDE3A and PDE3B) and test compounds at various concentrations. After incubation period, the reaction products and remaining substrate were measured. Detection was performed using EZ reader II. The concentration of compound inducing 50% of the response (IC50) was determined from each individual concentration-response curve using variable slope fits with Prism software (Graph Pad, San Diego, Calif., USA).

MRSA clinical strain [5] = assay: MIC by broth microdilution against the MRSA isolate (Example 4); assay type: cell-based; conditions: Staphylococcus aureus, read-out: MIC for the MRSA isolate
Protocol: as §3

[6] = system: rabbit saphenous vein rings; assay: In vitro vascular relaxation test in rabbit saphenous vein rings pre-contracted with noradrenaline; assay type: cell-based; conditions: for EC50: Oryctolagus cuniculus, saphenous vein rings pre-contracted with 1 μM noradrenaline, read-out: pD2 value (−log EC50) (converted); for relaxation of 1 μM noradrenaline pre-contracted preparations: DMSO-treated group −29±11%
Protocol: The vascular relaxing effects of Compound B were evaluated using isolated rabbit saphenous venous tissue. Rabbits were sacrificed by a blow to the head followed by a cervical dislocation and exsanguination. A segment of the saphenous vein was carefully excised. Vein was cleaned of all fat and connective tissue and cut into 2.5 mm long rings. The rings were then mounted horizontally in 20-ml organ baths filled with Krebs's solution maintained at 37.7±0.5° C. and gassed with a mixture of 95% O2 and 5% CO2. Krebs's solution was made up as follows (mM): NaCl: 118.0/KCl: 5.0/CaCl2): 2.6/MgSO4 (7H2O): 1.2/NaHCO3: 24.9/KH2PO4: 1.2/glucose: 10.0. pH is 7.40±0.05. The rings were allowed to equilibrate for 60 minutes at an optimal resting tension of 1 g. Contractile tensions were measured using an isometric force transducer and signals were analyzed using a specialized software (IOX version 1.554, EMKA Technologies, Paris, France). Tissue viability was verified using three challenges to 80 mM KCl. The maximal contraction was reached after 3 challenges of KCl. Endothelium integrity was verified on the basis of the relaxation produced by 1 μM acetylcholine in rings precontracted with 1 μM noradrenaline. All experiments were performed on […] rings with endothelium. The method evaluated the effect of the test substance in pre-contracted preparations. The preparations were pre-contracted with an agonist (Noradrenaline at 1 μM) until a stable tonic contraction was reached. Six cumulative concentrations of the test or comparison substances were then added into the bath and relaxations were recorded to plot a concentration-response curve. Three preparations were exposed to DMSO, 0.1% over 6 consecutive periods for comparison to Compound B and cilostazol. Four preparations (obtained from 4 animals) were studied for the test and comparison substances. Three preparations were studied for the DMSO-treated group. The relaxation response to test substance was expressed as the percentage of inhibition of agonist-induced pre-contraction. The concentration of agonist inducing 50% of the maximum response (EC50) was determined from each individual concentration-response curve using linear regression. For each ring, the agonist potency (pD2) was calculated as −log (EC50).

human PDE3B = human PDE3B (Homo sapiens, UniProt Q13370); assay: PDE3 inhibition assay, Caliper mobility shift (PDE3B); assay type: biochemical; conditions: iFL-cAMP substrate, read-out: absolute IC50 PDE3B
Sequence of human PDE3B (Q13370 whole entry): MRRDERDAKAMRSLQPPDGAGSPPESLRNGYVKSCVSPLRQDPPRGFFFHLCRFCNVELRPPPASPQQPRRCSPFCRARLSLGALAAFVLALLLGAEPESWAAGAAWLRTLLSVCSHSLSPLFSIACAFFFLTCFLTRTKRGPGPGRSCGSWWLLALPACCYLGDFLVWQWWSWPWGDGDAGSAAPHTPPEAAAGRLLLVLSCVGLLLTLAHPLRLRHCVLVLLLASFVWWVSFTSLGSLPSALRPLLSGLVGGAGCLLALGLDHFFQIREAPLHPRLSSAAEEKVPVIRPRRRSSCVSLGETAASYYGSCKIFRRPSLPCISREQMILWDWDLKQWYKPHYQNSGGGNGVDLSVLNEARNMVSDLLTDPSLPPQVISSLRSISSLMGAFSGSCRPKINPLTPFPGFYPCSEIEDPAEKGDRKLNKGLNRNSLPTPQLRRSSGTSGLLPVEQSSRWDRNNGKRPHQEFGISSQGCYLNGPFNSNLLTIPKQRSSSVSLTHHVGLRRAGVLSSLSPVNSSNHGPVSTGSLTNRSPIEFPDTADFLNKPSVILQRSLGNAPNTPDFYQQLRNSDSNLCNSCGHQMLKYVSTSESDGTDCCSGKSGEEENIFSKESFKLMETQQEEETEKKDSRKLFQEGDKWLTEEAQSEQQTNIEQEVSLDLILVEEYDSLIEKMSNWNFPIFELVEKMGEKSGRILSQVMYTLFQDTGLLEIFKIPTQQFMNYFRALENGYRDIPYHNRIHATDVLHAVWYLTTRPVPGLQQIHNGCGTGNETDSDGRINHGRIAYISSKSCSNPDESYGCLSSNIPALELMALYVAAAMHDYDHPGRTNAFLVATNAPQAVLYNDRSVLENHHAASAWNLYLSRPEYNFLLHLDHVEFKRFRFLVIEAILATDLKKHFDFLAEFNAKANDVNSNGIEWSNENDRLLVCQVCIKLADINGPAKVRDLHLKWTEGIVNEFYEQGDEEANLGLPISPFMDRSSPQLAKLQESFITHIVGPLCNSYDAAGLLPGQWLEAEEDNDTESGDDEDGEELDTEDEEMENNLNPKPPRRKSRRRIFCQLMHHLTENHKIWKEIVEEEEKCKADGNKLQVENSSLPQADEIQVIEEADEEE
Protocol: as §4

[7] = Bone and plasma quantification of Compound B by LC-MS/MS in rat osteomyelitis model; conditions: in vivo, Compound A 100 mg/kg po BID, no difference between infected and non-infected tibias, read-out: bone:plasma ratio of Compound B
Protocol: as §2

[8] = 0.1 mg/kg BID iv, 4 days of treatment, 1 animal
[9] = 0.4 mg/kg BID iv, 4 days of treatment
[10] = 1.6 mg/kg BID iv, 4 days of treatment
[11] = 6.25 mg/kg BID iv, 4 days of treatment
[12] = 12.5 mg/kg BID iv, 4 days of treatment

SMILES: Cc1c(CN(C)C(=O)/C=C/c2cnc3c(c2)CCC(=O)N3COP(=O)(O)O)oc2ccccc12 [Compound A, {6-[(1E)-3-{methyl[(3-methyl-1-benzofuran-2-yl)methyl]amino}-3-oxoprop-1-en-1-yl]-2-oxo-3,4-dihydro-1,8-naphthyridin-1(2H)-yl}methyl dihydrogen phosphate]
Δlog10 CFU/g of tissue (day 3-day 7), Bone marrow (MRSA clinical strain [1]; [8]): −0.74 log10 CFU/g of tissue | Δlog10 CFU/g of tissue (day 3-day 7), Epiphyseal bone (MRSA clinical strain [1]; [8]): −1.02 log10 CFU/g of tissue | Mean ± SD Δlog10 CFU/g of tissue (day 3-day 7), Bone marrow (MRSA clinical strain [1]; [9]): −2.03 ± 1.11 ^a log10 CFU/g of tissue | Mean ± SD Δlog10 CFU/g of tissue (day 3-day 7), Epiphyseal bone (MRSA clinical strain [1]; [9]): −1.23 ± 0.93 ^b log10 CFU/g of tissue | Mean ± SD Δlog10 CFU/g of tissue (day 3-day 7), Bone marrow (MRSA clinical strain [1]; [10]): −3.18 ± 0.74 ^a log10 CFU/g of tissue | Mean ± SD Δlog10 CFU/g of tissue (day 3-day 7), Epiphyseal bone (MRSA clinical strain [1]; [10]): −1.53 ± 1.53 ^a log10 CFU/g of tissue | Mean ± SD Δlog10 CFU/g of tissue (day 3-day 7), Bone marrow (MRSA clinical strain [1]; [11]): −3.45 ± 1.53 ^a log10 CFU/g of tissue | Mean ± SD Δlog10 CFU/g of tissue (day 3-day 7), Epiphyseal bone (MRSA clinical strain [1]; [11]): −2.17 ± 0.72 ^a log10 CFU/g of tissue | bacterial titers in BM and bone, result in words (MRSA clinical strain [1]; 12.5 mg/kg): significant reduction in bacterial titers | Mean ± SD Δlog10 CFU/g of tissue (day 3-day 7), Bone marrow (MRSA clinical strain [1]; [12]): −3.42 ± 0.96 ^a log10 CFU/g of tissue | Mean ± SD Δlog10 CFU/g of tissue (day 3-day 7), Epiphyseal bone (MRSA clinical strain [1]; [12]): −1.76 ± 0.74 ^a log10 CFU/g of tissue | bacterial counts in BM and bone, result in words (MRSA clinical strain [1]; lower doses 6.25, 1.6, 0.4 and 0.1 mg/kg IV BID, down to the 0.4 mg/kg dose): significant reduction in bacterial counts | mean reduction in bacterial burden compared to vehicle controls [2]: 2.8 log10 CFU/g of bone | development of resistance ([2]; after the 3-week treatment period): No development of resistance | Bone cultures found negative (rats) [2]: 2/6 | bacterial counts in BM and bone, result in words (MRSA clinical strain [3]): significant anti-staphylococcal activity | Mean ± SD Δlog10 CFU/g of tissue (day 3-day 7), Bone marrow (MRSA clinical strain [3]): −3.62 ± 0.67 log10 CFU/g of tissue | Mean ± SD Δlog10 CFU/g of tissue (day 3-day 7), Epiphyseal bone (MRSA clinical strain [3]): −2.52 ± 1.25 log10 CFU/g of tissue

SMILES: Cc1c(CN(C)C(=O)/C=C/c2cnc3c(c2)CCC(=O)N3)oc2ccccc12 [Compound B, (E)-N-methyl-N-((3-methylbenzofuran-2-yl)methyl)-3-(7-oxo-5,6,7,8-tetrahydro-1,8-naphthyridin-3-yl)acrylamide]
MIC (MRSA clinical strain [4]): 4 ng/mL (≈ 0.0107 µM) | development of resistance (MRSA clinical strain [1]; after the 4-day treatment period): No development of resistance | IC50 (human PDE3A): 600 nM | MIC (MRSA clinical strain [5]; Example 4 isolate): 4 ng/mL (≈ 0.0107 µM) | EC50 [6]: 1410 nM | relaxation of 1 μM noradrenaline pre-contracted preparations ([6]; at 10 μM): −69±9% | relaxant effects compared to vehicle control group (DMSO) ([6]; at 3 and 10 μM): concentration-dependently relaxed | relaxant effects compared to vehicle control group (DMSO) ([6]; from 0.03 to 1 μM): no relaxant effects | IC50 (human PDE3B): 703 nM | Kp [7]: 0.06 to 0.27

IC50 (human PDE3A): 416 nM | EC50 [6]: 832 nM | IC50 (human PDE3B): 912 nM
SMILES: O=C1CCc2cc(OCCCCc3nnnn3C3CCCCC3)ccc2N1 [cilostazol, reference compound]
relaxation of 1 μM noradrenaline pre-contracted preparations ([6]; at 100 μM): −70±7% | relaxant effects compared to vehicle control group (DMSO) ([6]; at 10 and 100 μM): concentration-dependently relaxed | relaxant effects compared to vehicle control group (DMSO) ([6]; from 0.001 to 1 μM): no relaxant effects

SMILES: C[C@@H]1O[C@@H]1P(=O)(O)O [fosfomycin]
mean reduction in bacterial burden compared to vehicle controls [2]: 3.3 log10 CFU/g of bone | Bone cultures found negative (rats) [2]: 2/6

SMILES: CN[C@H](CC(C)C)C(=O)N[C@H]1C(=O)N[C@@H](CC(N)=O)C(=O)N[C@H]2C(=O)N[C@H]3C(=O)N[C@H](C(=O)N[C@H](C(=O)O)c4cc(O)cc(O)c4-c4cc3ccc4O)[C@H](O)c3ccc(c(Cl)c3)Oc3cc2cc(c3O[C@@H]2O[C@H](CO)[C@@H](O)[C@H](O)[C@H]2O[C@H]2C[C@](C)(N)[C@H](O)[C@H](C)O2)Oc2ccc(cc2Cl)[C@H]1O [vancomycin, reference compound]
MIC (MRSA clinical strain [5]): 1000 ng/mL (≈ 0.69 µM) | mean reduction in bacterial burden compared to vehicle controls [2]: no statistically significant reduction | Bone cultures found negative (rats) [2]: 0/6 | bacterial counts in BM and bone, result in words (MRSA clinical strain [3]): No significant difference | Mean ± SD Δlog10 CFU/g of tissue (day 3-day 7), Bone marrow (MRSA clinical strain [3]): −1.05 ± 1.30 log10 CFU/g of tissue | Mean ± SD Δlog10 CFU/g of tissue (day 3-day 7), Epiphyseal bone (MRSA clinical strain [3]): −0.49 ± 0.65 log10 CFU/g of tissue
